Like-named read-outs stand apart in the source and are kept apart here.
Biological target: T1, B. cenocepacia CepI (Burkholderia cenocepacia, UniProt B4EMD2)
T1 sequence (B4EMD2 1-202): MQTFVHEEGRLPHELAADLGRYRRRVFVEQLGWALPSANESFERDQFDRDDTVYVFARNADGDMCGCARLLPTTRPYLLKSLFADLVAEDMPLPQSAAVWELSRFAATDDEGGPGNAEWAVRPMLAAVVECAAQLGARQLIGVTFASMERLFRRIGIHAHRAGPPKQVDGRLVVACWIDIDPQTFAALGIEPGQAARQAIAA
Assay: CepI enzymatic assay (holo-ACP formation with DCPIP)
Assay type: biochemical, Burkholderia cenocepacia J2315
Description: Determination of the CepI enzyme activity was performed spectrophotometrically by measuring holo-ACP formation with dichlorophenylindophenol (DCPIP; ε = 19100 M^−1 cm^−1) at 37 °C according to Christensen et al.[19]. Reaction mixtures typically contained 50 mM 4-(2-hydroxyethyl)-1-piperazineethanesulfonic acid pH 7.5 (HEPES), 0.005% Nonidet P-40, 0.13 mM DCPIP, 70 μM C8-ACP, 40 μM S-adenosyl methionine (SAM), 4 μM CepI and the reaction was started by addition of SAM after pre-incubation for 10 min.
CepI inhibition was initially screened for all compounds at 100 μM (dissolved in DMSO). […] To determine IC50, the enzyme activities were measured in presence of different concentrations of compounds and values determined with equation (1): […]
where A[I] is the enzyme activity at inhibitor concentration [I] and A[0] is the enzyme activity without inhibitor.
Ki determination was determined using the equation (2) for noncompetitive inhibition[49]: […]

[1] = Supplementary Table S1, initial screen at 100 μM
[2] = recombinant CepI, read-out: CepI IC50

In the case of O=C1CNC(=O)C(c2cc(OCc3ccccc3)ccc2OCc2ccccc2)N1 (stereo not drawn) [6a], the IC50 is reported as 30 ± 6 µM.
With O=C1N[C@H](Cc2ccccc2)C(=O)NC1c1cc(OCc2ccccc2)ccc1OCc1ccccc1 (stereo partly drawn) [6b] the “CepI IC50” value [1] was “not inhibitory”.
With CC(C)[C@H]1NC(=O)C(c2cc(OCc3ccccc3)ccc2OCc2ccccc2)NC1=O (stereo partly drawn) [6c] the “CepI IC50” value [1] was “not inhibitory”.
O=C1CNC(=O)C(c2cc(O)ccc2O)N1 (stereo not drawn) [7a] was tested, and the “CepI IC50” value [1] was “not inhibitory”.
In the case of O=C1N[C@H](Cc2ccccc2)C(=O)NC1c1cc(O)ccc1O (stereo partly drawn) [7b], the “CepI IC50” value [1] is reported as “not inhibitory”.
In the case of CC(C)[C@H]1NC(=O)C(c2cc(O)ccc2O)NC1=O (stereo partly drawn) [7c], the “CepI IC50” value [1] is reported as “not inhibitory”.
Work on O=C1C=CC(=O)C(C2NC(=O)CNC2=O)=C1 (stereo not drawn) [8a] yielded an IC50 (Supplementary Table S1, initial screen at 100 μM, read-out: CepI IC50) of 10 ± 1 µM.
O=C1C=CC(=O)C(C2NC(=O)C(Cc3ccccc3)NC2=O)=C1 (stereo not drawn) [8b] was tested, and the IC50 was 5 ± 0.8 µM, the Ki was 17 ± 0.6 µM and the mechanism of inhibition (towards both C8-ACP and SAM substrates) was “non-competitive inhibitor”.
CC(C)C1NC(=O)C(C2=CC(=O)C=CC2=O)NC1=O (stereo not drawn) [8c] was tested, and the IC50 [2] was 5 to 30 µM.
In the case of CN1CCN(C(c2ccccn2)c2c(-c3ccccc3)n(O)c3ccccc23)CC1 (stereo not drawn) [compound 1 from Christensen et al., reference compound], the IC50 [2] is reported as 7.2 ± 0.2 µM.
